Legend:
Pa21 gene [1] = experiment: Pa21 gene expression by real-time RT-PCR in primary skeletal muscle cells; type: cell-based, human; settings: about 18-20 hours, vehicle control = 100
From the text: (§1) Human hepatocyte HuH7 cells, which are epithelial cells of liver, were obtained from Japan Health Science Research Resources Bank (Osaka, Japan). Human primary adipocytes, which are connective tissue cells specialized for the synthesis and storage of fat, were obtained from Zen-Bio, Inc (Research Triangle Park, NC). Human primary skeletal muscle cells (SKMC) were obtained from Cambrex Bio Science (Walkersville, Md.). PPARα agonists, Wy14643 (Agatha, et al, 2000, Archives of Biochemistry and Biophysics 380:353-359) and fenofibrates were obtained from Cayman Chemical (Ann Arbor, Mich.) and Sigma (St Louis, Mo.), respectively.
(§2) Human HuH7 cells were cultured in Dulbecco's Modified Eagle Medium with 10% Fetal Bovine Serum (Gibco, N.Y.). Cells were treated with charcoal-stripped, delipidated calf serum (5%) (Sigma, St Louis, Mo.) for about 4-18 hours. Then, cells were treated with different concentrations of PPARα agonist (Wy14643 or fenofibrates) for about 20-24 h. Human SKM cells were cultured in Skeletal Muscle Growth Medium (Cambrex Bio Science, Walkersville, Md.), and were treated with different concentrations of PPARα agonist (Wy14643 or fenofibrates) for about 18-20 hours. Human primary adipocytes were cultured in Preadipocyte Medium, (Cat #PM—1, Zen-Bio, Inc., Research Triangle Park, NC), and were treated with different concentrations of PPARα agonist (Wy14643 or fenofibrates) for about 18-20 hours.
(§3) Total RNA was purified from cultured cells following the protocol provided by the manufacturer (Trizon method, Invitrogen Inc. Ca). The polymerase chain reaction (PCR) primers and fluorescent probes (TagMan probes) for Pa9, Pa13, and Pa21 were designed from GenBank sequences of accession numbers W30988, AB000584, and NM_080725, respectively. The primers and probes were designed using the software PrimerDesign (Applied Biosystems, Foster City, Calif.). The PCR primers for Pa9 were SEQ ID NO: 7, (5-[…]) and SEQ ID NO: 8 (5-[…]). […] The PCR primers for Pa13 were SEQ ID NO: 10 (5-[…], T) and SEQ ID NO: 11 (5-[…] T). […] The PCR primers for Pa21 were SEQ ID NO: 13 (5-[…] C) and SEQ ID NO: 14 (5-[…]). […] All primers and probes were synthesized by Keystone Labs (Camarillo, Calif.).
(§4) Reverse transcription (RT) and PCR were conducted in one step using “One-Step RT-PCR Master Mix Reagent” kit (Applied Biosystems, Foster City, Calif.) in ABI PRISM 7700 Sequence Detection System (Applied Biosystems). Each reaction was performed in a total volume of 25 μl containing 40 ng of total RNA. The reaction condition was: 48° C. for 30 minutes, 60° C. for 30 minutes, 94° C. for 5 minutes, followed by 40 cycles of 94° C. for 20 seconds and 60° C. for 1 minute. The primers for 18S ribosomal RNA were developed and provided by Applied Biosystems. The measurement of human 18S ribosomal RNA was used as an internal control for normalization of measuring and loading errors. PCR data were collected by Ct value (the cycle number at which logarithmic PCR plots cross a calculated threshold line) according to the manufacturer's guidelines and the value was used to determine the Δ^Ct (Ct of the target gene minus the Ct of 18S ribosomal RNA controls). Relative mRNA level was calculated using the equation 2^−ΔΔCt as described previously (Heid et al., 1996, Genome Res. 6:986-994).

Pa21 gene [2] = experiment: Pa21 gene expression in SKM cells with siRNA-reduced PPARα expression; type: cell-based, human; settings: SKMU cells with reduced PPARα expression
From the text: SiRNA oligos specific to PPARα were designed and used to knock-down or reduce the expression level of PPARα in human SKMU cells following procedures known to those skilled in the art (Brummelkamp et al., 2002, Science, 296: 550-553). Four sets of siRNA oligo were originally designed using GenBank accession number S74349 (human peroxisome proliferator activated receptor alpha, cDNA; PPARα) as the template, and the software, Target Finder (Ambion, Austin, Tex.). […] The sequences for the two sets of siRNA correspond to 907 bp to 927 bp (SEQ ID NO: 21, 5′-[…] A) and 1106 bp to 1126 bp of the cDNA (SEQ ID NO: 22, 5′-[…] T) relative to the first nucleotide of the start codon. The oligos were chemically synthesized by Ambion Inc. (Austin, Tex.). The universal negative control siRNA oligo was purchased from Ambion.
Human primary skeletal muscle cells (hSKM, provided by Cambrex, Md.) were prepared the day before transfection at the density of 4.67×10^4 cells/per 60 mm dish (about 20% confluence). The cells were cultured at 37° C., 5% CO2 for 24 hrs with antibiotics-free SKGM medium (Cambrex, Md.). […]
Again, total RNA was isolated from the cells and real-time PCR was performed and the expression levels of target genes of interest, such as Pa9, 13 and 21, were quantitatively measured using the RT-PCR technique described in Example 1.

[3] = system: murine FIAF (fasting induced adipose factor); settings: PPARα wild type mouse liver cells; cited from earlier work
Pa13 gene [4] = experiment: Pa13 gene expression by real-time RT-PCR in primary skeletal muscle cells; type: cell-based, human; settings: about 18-20 hours, vehicle control = 100
From the text: as §1, §2, §3, §4

Pa9 gene = Pa9 gene expression by real-time RT-PCR in primary adipocytes; type: cell-based, human; settings: about 18-20 hours, vehicle control = 100
From the text: as §1, §2
Total RNA was purified from cultured cells following the protocol provided by the manufacturer (Trizon method, Invitrogen Inc. Ca). The polymerase chain reaction (PCR) primers and fluorescent probes (TagMan probes) for Pa9, Pa13, and Pa21 were designed from GenBank sequences of accession numbers W30988, AB000584, and NM_080725, respectively. The primers and probes were designed using the software PrimerDesign (Applied Biosystems, Foster City, Calif.). The PCR primers for Pa9 were SEQ ID NO: 7, (5-[…]) and SEQ ID NO: 8 (5-[…]). […] The PCR primers for Pa13 were SEQ ID NO: 10 (5-[…], T) and SEQ ID NO: 11 (5-[…] T). […] The PCR primers for Pa21 were SEQ ID NO: 13 (5-[…] C) and SEQ ID NO: 14 (5-[…]). […]
Reverse transcription (RT) and PCR were conducted in one step using “One-Step RT-PCR Master Mix Reagent” kit (Applied Biosystems, Foster City, Calif.) in ABI PRISM 7700 Sequence Detection System (Applied Biosystems). […] PCR data were collected by Ct value (the cycle number at which logarithmic PCR plots cross a calculated threshold line) according to the manufacturer's guidelines and the value was used to determine the Δ^Ct (Ct of the target gene minus the Ct of 18S ribosomal RNA controls). Relative mRNA level was calculated using the equation 2^−ΔΔCt as described previously (Heid et al., 1996, Genome Res. 6:986-994).

Pa13 gene [5] = experiment: Pa13 gene expression by real-time RT-PCR in HuH7 hepatocytes; type: cell-based, human; settings: about 20-24 h, vehicle control = 100
From the text: as §1, §2, §3, §4

Cc1cccc(Nc2cc(Cl)nc(SCC(=O)O)n2)c1C [Wy14643]
Pa21 (H4960) gene expression, Percentage ± SE (%) (Pa21 gene [1]; 3 uM): 130 ± 23.8% | Pa21 (H4960) gene expression, Percentage ± SE (%) (Pa21 gene [1]; 10 uM): 200 ± 48.5% | Pa21 (H4960) gene expression, Percentage ± SE (%) (Pa21 gene [1]; 30 uM): 310 ± 1.9% | Pa21 (H4960) gene expression, Percentage ± SE (%) (Pa21 gene [1]; 100 uM): 560 ± 16.6% | Pa21 (H4960) gene expression, Percentage ± SE (%) (Pa21 gene [1]; 300 uM): 2250 ± 11.7% | induction of Pa21 gene expression (FIG. 7) (Pa21 gene [2]): no detectable induction | expression of murine FIAF [3]: increased | Pa13 (N26311) gene expression, Percentage ± SE (%) (Pa13 gene [4]; 3 uM): 36.4 ± 6.4% | Pa13 (N26311) gene expression, Percentage ± SE (%) (Pa13 gene [4]; 10 uM): 45.5 ± 10% | Pa13 (N26311) gene expression, Percentage ± SE (%) (Pa13 gene [4]; 30 uM): 136.4 ± 38.7% | Pa13 (N26311) gene expression, Percentage ± SE (%) (Pa13 gene [4]; 100 uM): 290.9 ± 54.1% | Pa13 (N26311) gene expression, Percentage ± SE (%) (Pa13 gene [4]; 300 uM): 1672.7 ± 32% | Pa9 (W38098) gene expression, Percentage ± SE (%) (Pa9 gene; 10 uM): 124 ± 7.2% | Pa9 (W38098) gene expression, Percentage ± SE (%) (Pa9 gene; 50 uM): 358 ± 6.9% | Pa9 (W38098) gene expression, Percentage ± SE (%) (Pa9 gene; 250 uM): 437 ± 17.3% | Pa13 (N26311) gene expression, Percentage ± SE (%) (Pa13 gene [5]; 3 uM): 70 ± 28% | Pa13 (N26311) gene expression, Percentage ± SE (%) (Pa13 gene [5]; 10 uM): 100 ± 4% | Pa13 (N26311) gene expression, Percentage ± SE (%) (Pa13 gene [5]; 30 uM): 140 ± 26.4% | Pa13 (N26311) gene expression, Percentage ± SE (%) (Pa13 gene [5]; 100 uM): 130 ± 17.7% | Pa13 (N26311) gene expression, Percentage ± SE (%) (Pa13 gene [5]; 300 uM): 720 ± 36.4%
